# Measurements: US11975051B1, “Therapeutic peptides and uses thereof” (priority 2022, dated 2024)
# “Also recorded” adds a separate entry of the source. Like-named read-outs stand apart in the source and are kept apart here. Where a SMILES comes first, the peptide text is derived from it. [ ]: non-standard residue; d: D form.
# What was measured:
# Rat microsomal stability = assay type: in vitro ADME; conditions: rat microsomes
# A-375 melanoma cells = test: Erastin-induced ferroptotic cell death, viability; assay type: cell-based; conditions: washed
# Experimental: (§1) Melanoma cell lines A-375, A-375 non-target, and A-375 (Prdx6 KO) cells were pre-incubated with TVALA™, washed, and treated with Erastin. Following treatment, the cells were evaluated for viability. […] When the cells were pre-treated with TVALA™, washed, and incubated with TVALA™ followed by treatment with Erastin, the cells were protected against Erastin-induced cell death. When A-375 non target cells or A-375 knock out cells were used there was no effect of pre-treatment followed by TVALA™ treatment as expected (data not shown).
# A-375 (Prdx6 KO) cells = test: Erastin-induced ferroptotic cell death, viability; assay type: cell-based; conditions: pre-treatment followed by TVALA treatment; data not shown
# Experimental: as §1
# A-375 non-target cells = test: Erastin-induced ferroptotic cell death, viability; assay type: cell-based; conditions: pre-treatment followed by TVALA treatment; data not shown
# Experimental: as §1
# [1] = tested on: ALS patient derived adipose stem cells (ASCs); test: Ionomycin-stressed ALS patient derived adipose stem cells, rescue by test compound (SeaHorse); assay type: cell-based, human
# Experimental: Adipose stem cells (“ASCs”) derived from fat tissue harvested from an ALS patient were glycolytic showing increased proliferation and lipid accumulation in culture. An in vitro model of mitochondrial dysfunction was initiated with ALS patient derived ASCs grown in growth media. After cells were confluent, the growth media was treated with chemical stressors, such as ionomycin. Ionomycin induces cell death, apoptosis, peroxide formation, extracellular ATP, and peroxynitrites that are related to mitochondrial dysfunction. The media was exchanged and replaced with basic DMEM with 4 mM pyruvate and no additional growth factors. Test compounds were added in an effort to rescue the ionomycin treated cells. After recovery, 6 hours, the cells were measured for viability, apoptosis, peroxides, and peroxynitrites by SeaHorse analysis. The ASC patient derived cells are a good model to investigate dysregulated mitochondrial dysfunction in disease, these effects are not apparent in all ALS patient derived iPSC fibroblast cells (data not shown).
# [2] = Pharmacokinetics in rat (IV, SC, PO); conditions: in vivo
# [3] = Pharmacokinetics in mice dosed IV, SC and PO; assay type: in vivo, mouse; conditions: for half-life / bioavailability / AUC(0-inf) / Cmax: mouse, in vivo, mice
# ALS patient-derived ASCs = test: Stressed ALS patient-derived ASCs treated with peptides, SeaHorse analytics (Example 6); assay type: cell-based, human
# Text: ALS patient-derived ASCs showing hypermetabolism and lipid sequestration were stressed and treated with peptides (shown below, column 2) and effect of the peptide measured with SeaHorse analytics.
# [4] = tested on: SOD1^G93A mouse model of ALS; test: 6-week efficacy testing of TVALA in drinking water in the SOD1^G93A mouse model of ALS; assay type: in vivo
# Experimental: A 6-week efficacy testing of test article, TVALA™, in daily drinking water, in the SOD1^G93A mouse model of ALS, with neurological scoring, neuroinflammation and axonopathy outcome measures was conducted by orally dosing with 3 mg/kg or 10 mg/kg. In phrenic nerves the axons numbers are not affected at this age, however axons start to atrophy, in femoral nerves, the mice lose axons and the remaining ones are atrophied.
# Mouse plasma stability = assay type: in vitro ADME; conditions: read-out: Mouse Plasma Stability t½
# [5] = Mouse (liver) microsomal stability; assay type: in vitro ADME; conditions: for half-life: mouse, liver microsomes
# Dog microsomal stability = assay type: in vitro ADME; conditions: dog microsomes
# [6] = Pharmacokinetics in dog (PO); conditions: in vivo, read-out: % F (PO)
# [7] = In vitro comparisons of Elamipretide triacetate and TVALA; conditions: data not shown
# Experimental: TVALA™ may be steroid sparing in diseases that involve innate immunity and autoimmune components that are traditionally treated with steroids. For example, age-related macular degeneration is treated with steroid anti-inflammatory agents. TVALA™ is used as an adjunct to traditional therapies, decreasing or eliminating the need for steroids. Another example is for renal dialysis patients, for which TVALA™ is used as adjunctive or as a replacement to anti-inflammatory therapies. Elamipretide Triacetate is a small, mitochondrially-targeted d-tetrapeptide that is not entirely different from TVALA™, as both have two basic residues (Arg and Lys) and both have a d-Arg. Elamipretide triacetate appears to reduce the production of the toxic reactive oxygen species and stabilize cardiolipin to moderate mitochondrial disease.
smiles,measurement,setting,value
"CC(C)[C@@H](NC(=O)[C@H](N)Cc1ccc(O)cc1)C(=O)N[C@H](CC(=O)O)C(=O)N[C@H](CCCCN)C(=O)N[C@H](CCCNC(=N)N)C(=O)O [TVALA™, H-(D-Tyr)-(D-Val)-(D-Asp)-(D-Lys)-(D-Arg)-OH] (H-[dY][dV][dD][dK][dR]-OH)",half-life,Rat microsomal stability,> 60 min
same,rescue against Erastin-induced cell death (viability),"A-375 melanoma cells; pre-incubated with peptide, treated with Erastin",did not rescue
same,protection against Erastin-induced cell death (viability),"A-375 melanoma cells; pre-treated, incubated with peptide, followed by Erastin",protected
same,effect on Erastin-induced cell death,A-375 (Prdx6 KO) cells,no effect
same,effect on Erastin-induced cell death,A-375 non-target cells,no effect
same,comparison with TP-5 in ALS patient derived cells,[1],superior to TP-5
same,VEGFR2 expression,[1]; ALS patient derived cells,normalizes
same,peroxides,[1]; ALS-ASC cells in vitro,reduces
same,dysregulated mitochondrial energy metabolism,[1]; in vitro,rescues
same,extracellular ATP (eATP),[1]; in vitro cultured ASCs from an ALS patient,decreased
same,bioavailability,"[2]; PO, read-out: % F (PO)",6.7%
same,bioavailability,"[2]; SC, read-out: % F (SC)",79.2%
same,half-life,"[3]; IV, read-out: IV t½, mice",6.22 min
same,bioavailability,"[3]; PO, read-out: PO % F, mice",30%
same,AUC(0-inf),"[3]; PO, read-out: PO AUCinf",2.4 µg·h/mL
same,Cmax,"[3]; PO, read-out: PO Cmax",5.29 µg/mL
same,half-life,"[3]; PO, read-out: PO t½, mice",7.36 min
same,bioavailability,"[3]; SC, read-out: SC % F, mice",52%
same,AUC(0-inf),"[3]; SC, read-out: SC AUCinf",0.355 µg·h/mL
same,Cmax,"[3]; SC, read-out: SC Cmax",0.674 µg/mL
same,half-life,"[3]; SC, read-out: SC t½, mice",11.9 min
same,expected impact of the oral drug on the central nervous system,"[3]; oral, based on in vivo testing (Table 4)",5%
same,effect of the peptide measured with SeaHorse analytics,ALS patient-derived ASCs,superior to the other compounds
same,neuroprotection on the phrenic and femoral motor axon sizes,[4]; 3 mg/kg dose,very discrete neuroprotection
same,effect on the neuroinflammatory marker GFAP (spinal cord),[4]; 3 mg/kg orally compared with 10 mg/kg orally,more significant effects than 10 mg/kg orally
same,Femoral motor axon size,"[4]; 3 mg/kg orally, SOD1^G93A hemizygous mice, vs vehicle/controls",axons of slightly larger size; also recorded: slightly larger femoral motor axons than vehicle treated mice
same,Phrenic nerve cross-section area (phrenic axon size),"[4]; 10 mg/kg orally, SOD1^G93A hemizygous mice, vs vehicle/control",smallest axons; also recorded: smaller phrenic axons than vehicle treated mice
same,brain inflammation,"[4]; oral administration, data not shown",not impacted
same,half-life,Mouse plasma stability,> 120 min
same,"stability in mouse liver microsomes, half-life","[5]; mouse liver microsomes, listed as SEQ ID NO:1",greater than 120 minutes
same,half-life,"[5]; mouse liver microsomes, read-out: stability in mouse liver microsomes, half-life",> 120 min
same,half-life,"[5]; mouse microsomes, read-out: Mouse Microsomal Stability t½",> 60 min
same,half-life,Dog microsomal stability,> 60 min
same,bioavailability,[6],4.9%
same,immunomodulation compared with Elamipretide triacetate,[7],superior at immunomodulation
same,target receptors compared with Elamipretide triacetate,[7],more target receptors
